Structures are written as SMILES. Counter-ions that a name gives are not always drawn.

Format in all cases: cell-based, human
One assay relates to MDA-MB-453. In words: Compounds cellular killing in MDA-MB-453. The following applies: for EC50 / Emax: Homo sapiens, MDA-MB-453, […]; for killing activity compared with 1-B: MDA-MB-453, FIG. 1. Here is the method: Seeding cells MDA-MB-453 (2E3/well) into 96-well plate (Greiner: 655090), 100 ul/well. Incubation at 37° C., 5% CO2, overnight.
Adding the fresh growth-medium containing the varying concentrations of compounds, 50 ul/well.
Incubation at 37° C., 5% CO2, 6 days.
The cell viability detected by Cell Titer-Glo (Promega, G7573). Add 70 µL/well of CellTiter-Glo® Reagent in each well.
Allow the plates to incubate at room temperature for 10 minutes to stabilize luminescent signal.
Analyze with Microplate Reader.

Another assay relates to A375. In words: Compounds cellular killing in A375. The following applies: Homo sapiens, A375, 6 days, Cell Titer-Glo. The gist of the method:
(§1)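 A375 (1E3/well) or Calu-6 (2E3/well) cells were seeded overnight, then exposed to varying compound concentrations for 6 days at 37 °C, 5% CO2. Viability was read by CellTiter-Glo luminescence.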
In general terms: Cellular ATP, detected with luciferase, serves as a proxy for viable cell number.

The next assay relates to Calu-6. In words: Compounds cellular killing in Calu-6. The following applies: Homo sapiens, Calu-6, 6 days, Cell Titer-Glo. The gist of the method:
as §1

The term EC50 denotes the concentration giving half of the maximal effect. High values mean lower potency in that assay, low ones higher potency in that assay. What is called Emax is the size of the effect at its maximum, as opposed to the concentration needed. For `CC[C@@]1(O)C(=O)OCc2c1cc1n(c2=O)Cc2c-1nc1cc(F)c(C)c3c1c2[C@@H](N(C)C)CC3` [Example 1-5, (1S,9S)-1-(dimethylamino)-9-ethyl-5-fluoro-9-hydroxy-4-methyl-1,2,3,9,12,15-hexahydro-10H,13H-benzo[de]pyrano[3′,4′:6,7]indolizino[1,2-b]quinoline-10,13-dione], in the assay on MDA-MB-453, the EC50 worked out at 1.3 nM, the Emax stood at 93.3% and the “killing activity compared with 1-B” value is on record as “comparable killing activity to 1-B”.
Turning to `CC[C@@]1(O)C(=O)OCc2c1cc1n(c2=O)Cc2c-1nc1cc(F)c(C)c3c1c2[C@@H](N1CCNCC1)CC3` [Example 1-6, (1S,9S)-9-ethyl-5-fluoro-9-hydroxy-4-methyl-1-(piperazin-1-yl)-1,2,3,9,12,15-hexahydro-10H,13H-benzo[de]pyrano[3′,4′:6,7]indolizino[1,2-b]quinoline-10,13-dione], in the assay with MDA-MB-453, the EC50 amounted to 3.3 nM, the Emax was found to be 93.4% and the “killing activity compared with 1-B” value is “less potent than 1-B”.
As to `CC[C@@]1(O)C(=O)OCc2c1cc1n(c2=O)Cc2c-1nc1cc3c(c4c1c2[C@@H](NC(=O)C(C)(C)CO)CC4)OCO3` [Example 2-35, N-((1S,10S)-10-ethyl-10-hydroxy-11,14-dioxo-2,3,10,11,14,16-hexahydro-1H,13H-benzo[de][1,3]dioxolo[4,5-g]pyrano[3′,4′:6,7]indolizino[1,2-b]quinolin-1-yl)-3-hydroxy-2,2-dimethylpropanamide], in the assay on A375 (A-375, […]), the EC50 came out at 1.6 nM and the Emax was 100%. In the assay with Calu-6 (Calu-6, […]), this compound displayed an EC50 of 0.2 nM and an Emax of 98.6%.
For `CC[C@@]1(O)C(=O)OCc2c1cc1n(c2=O)Cc2c-1nc1cc(F)c(C)c3c1c2[C@@H](NC(=O)[C@@H]1C[C@@H](O)CN1C)CC3` [Example 2-36, (2S,4R)—N-((1S,9S)-9-ethyl-5-fluoro-9-hydroxy-4-methyl-10,13-dioxo-2,3,9,10,13,15-hexahydro-1H,12H-benzo[de]pyrano[3′,4′:6,7]indolizino[1,2-b]quinolin-1-yl)-4-hydroxy-1-methylpyrrolidine-2-carboxamide] the same measures were 13.9 nM, 97.8%, 6.2 nM and 97.7%.
The like results for `CC[C@@]1(O)C(=O)OCc2c1cc1n(c2=O)Cc2c-1nc1cc(F)c(C)c3c1c2[C@@H](NC(=O)[C@@H]1C[C@H](O)CN1C)CC3` [Example 2-37, (2S,4S)—N-((1S,9S)-9-ethyl-5-fluoro-9-hydroxy-4-methyl-10,13-dioxo-2,3,9,10,13,15-hexahydro-1H,12H-benzo[de]pyrano[3′,4′:6,7]indolizino[1,2-b]quinolin-1-yl)-4-hydroxy-1-methylpyrrolidine-2-carboxamide] were, in that order, 3.7 nM, 99.9%, 1.5 nM and 98.8%.
For `CC[C@@]1(O)C(=O)OCc2c1cc1n(c2=O)Cc2c-1nc1cc(F)c(C)c3c1c2[C@@H](NC(=O)[C@@H]1C[C@H](O)CN1C(C)=O)CC3` [Example 2-38, (2S,4S)-1-acetyl-N-((1S,9S)-9-ethyl-5-fluoro-9-hydroxy-4-methyl-10,13-dioxo-2,3,9,10,13,15-hexahydro-1H,12H-benzo[de]pyrano[3′,4′:6,7]indolizino[1,2-b]quinolin-1-yl)-4-hydroxypyrrolidine-2-carboxamide] the same measures were 30.9 nM, 98.7%, 12.9 nM and 96.4%.
In the assay with A375 (A-375, […]), `CC[C@@]1(O)C(=O)OCc2c1cc1n(c2=O)Cc2c-1nc1cc(F)c(C)c3c1c2[C@@H](NC(=O)C(C)(F)CO)CC3` (stereo partly drawn) [Example 2-41, N-((1S,9S)-9-ethyl-5-fluoro-9-hydroxy-4-methyl-10,13-dioxo-2,3,9,10,13,15-hexahydro-1H,12H-benzo[de]pyrano[3′,4′:6,7]indolizino[1,2-b]quinolin-1-yl)-2-fluoro-3-hydroxy-2-methylpropanamide] yielded a concentration for a half-maximal effect (EC50) of 1.5 nM and a maximum response (Emax) of 99.9%. In the assay with Calu-6 (Calu-6, […]), this compound displayed an EC50 of 0.6 nM and a maximal effect (Emax) of 98.2%.
For `CC[C@@]1(O)C(=O)OCc2c1cc1n(c2=O)Cc2c-1nc1cc(F)c(C)c3c1c2C(CCCN)CC3` (stereo partly drawn) [Example 2-42, (9S)-1-(3-aminopropyl)-9-ethyl-5-fluoro-9-hydroxy-4-methyl-1,2,3,9,12,15-hexahydro-10H,13H-benzo[de]pyrano[3′,4′:6,7]indolizino[1,2-b]quinoline-10,13-dione formate] the same measures were 20.7 nM, 99.6%, 2.8 nM and 99.2%.
For `CC[C@@]1(O)C(=O)OCc2c1cc1n(c2=O)Cc2c-1nc1cc(F)cc3c1c2[C@@H](NC(=O)C(C)(C)CO)CC3` [Example 2-43, N-((1S,9S)-9-ethyl-5-fluoro-9-hydroxy-10,13-dioxo-2,3,9,10,13,15-hexahydro-1H,12H-benzo[de]pyrano[3′,4′:6,7]indolizino[1,2-b]quinolin-1-yl)-3-hydroxy-2,2-dimethylpropanamide] the same measures were 3.6 nM, 100%, 1.1 nM and 99.2%.
As for `CC[C@@]1(O)C(=O)OCc2c1cc1n(c2=O)Cc2c-1nc1cc(F)c(C)c3c1c2C(CCO)CC3` (stereo partly drawn) [Example 2-46, (9S)-9-ethyl-5-fluoro-9-hydroxy-1-(2-hydroxyethyl)-4-methyl-1,2,3,9,12,15-hexahydro-10H,13H-benzo[de]pyrano[3′,4′:6,7]indolizino[1,2-b]quinoline-10,13-dione], the figures for the EC50 with A375 (A-375) and in the assay on Calu-6 were 0.7 nM and 0.2 nM, respectively. Also, the Emax was determined as 100% in the assay with A375 (A-375) and 98.1% in the assay on Calu-6 (Calu-6, […]).
In the assay on A375 (A-375, […]), `CC[C@@]1(O)C(=O)OCc2c1cc1n(c2=O)Cc2c-1nc1cc(F)c(C)c3c1c2C(C(=O)N1CCC1CO)CC3` (stereo partly drawn) [Example 2-47, (9S)-9-ethyl-5-fluoro-9-hydroxy-1-(2-(hydroxymethyl)azetidine-1-carbonyl)-4-methyl-1,2,3,9,12,15-hexahydro-10H,13H-benzo[de]pyrano[3′,4′:6,7]indolizino[1,2-b]quinoline-10,13-dione] returned a concentration for a half-maximal effect (EC50) of 6.7 nM and an Emax of 99.7%. In the assay with Calu-6 (Calu-6, […]), this compound yielded an EC50 of 1.8 nM and an Emax of 99.5%.
The like results for `CC[C@@]1(O)C(=O)OCc2c1cc1n(c2=O)Cc2c-1nc1cc(F)c(C)c3c1c2C(CCCCO)CC3` (stereo partly drawn) [Example 2-48, (9S)-9-ethyl-5-fluoro-9-hydroxy-1-(4-hydroxybutyl)-4-methyl-1,2,3,9,12,15-hexahydro-10H,13H-benzo[de]pyrano[3′,4′:6,7]indolizino[1,2-b]quinoline-10,13-dione] were, in that order, 0.4 nM, 99.5%, 0.1 nM and 98.7%.
The like results for `CC[C@@]1(O)C(=O)OCc2c1cc1n(c2=O)Cc2c-1nc1cc(F)c(C)c3c1c2C(CNCCO)CC3` (stereo partly drawn) [Example 2-53, Nbenzyl (9S)-9-ethyl-5-fluoro-9-hydroxy-1-(((2-hydroxyethyl)amino)methyl)-4-methyl-1,2,3,9,12,15-hexahydro-10H,13H-benzo[de]pyrano[3′,4′:6,7]indolizino[1,2-b]quinoline-10,13-dione] were, in that order, 5.1 nM, 99.9%, 1.6 nM and 98.7%.
In the assay with A375 (A-375, […]), `CC[C@@]1(O)C(=O)OCc2c1cc1n(c2=O)Cc2c-1nc1cc(F)c(C)c3c1c2C(CN(C)CCO)CC3` (stereo partly drawn) [Example 2-54, (9S)-9-ethyl-5-fluoro-9-hydroxy-1-(((2-hydroxyethyl)(methyl)amino)methyl)-4-methyl-1,2,3,9,12,15-hexahydro-10H,13H-benzo[de]pyrano[3′,4′:6,7]indolizino[1,2-b]quinoline-10,13-dione] yielded an EC50 of 0.9 nM and an Emax of 100%. In the assay with Calu-6 (Calu-6, […]), this compound had an EC50 of 0.2 nM and an Emax of 98.2%.
For `CC[C@@]1(O)C(=O)OCc2c1cc1n(c2=O)Cc2c-1nc1cc(F)c(C)c3c1c2C(CNCCCO)CC3` (stereo partly drawn) [Example 2-55, (9S)-9-ethyl-5-fluoro-9-hydroxy-1-(((3-hydroxypropyl)amino)methyl)-4-methyl-1,2,3,9,12,15-hexahydro-10H,13H-benzo[de]pyrano[3′,4′:6,7]indolizino[1,2-b]quinoline-10,13-dione] the same measures were 7.3 nM, 99.8%, 2.8 nM and 99.3%.
For `CC[C@@]1(O)C(=O)OCc2c1cc1n(c2=O)Cc2c-1nc1cc(Cl)c(C)c3c1c2[C@@H](NC(=O)C(C)(F)CO)CC3` (stereo partly drawn) [Example 2-58, N-((1S,9S)-5-chloro-9-ethyl-9-hydroxy-4-methyl-10,13-dioxo-2,3,9,10,13,15-hexahydro-1H,12H-benzo[de]pyrano[3′,4′:6,7]indolizino[1,2-b]quinolin-1-yl)-2-fluoro-3-hydroxy-2-methylpropanamide] the same measures were 2.9 nM, 99.9%, 0.9 nM and 98.8%.

For the origin of these results see US20250295798A1, “LIGAND-DRUG CONJUGATE OF EXATECAN ANALOGUE, AND MEDICAL USE THEREOF” (BeiGene Switzerland GmbH, priority 2022, published 2025).
